Literature values as cited in US20080124386A1, “APOPTOSIS-MIMICKING SYNTHETIC ENTITIES AND USE THEREOF IN MEDICAL TREATMENT” (Vasogen Ireland Limited, priority 2000, published 2008).

Columns and labels:
spatial memory = conditions: oral, 50 mg/day; compared with placebo
Alzheimer's disease = conditions: oral, 300 mg/day; compared with placebo

phosphatidylserine [PS]
spatial memory in animal models (spatial memory): statistically significant improvements
treatment of Alzheimer's disease in humans (Alzheimer's disease): statistically significant improvements
